Experimental data taken from US6448405B1, “Steroid receptor modulator compounds and methods” (Ligand Pharmaceuticals Incorporated, priority 1994, dated 2002).

What was measured:
[1] = target: T1, human glucocorticoid receptor (GR) (Homo sapiens, UniProt P04150); test: Co-transfection assay, GR antagonist activity, CV-1 cells (pRShGR); type: cell-based; details: antagonist mode; for GR Antagonist CV-1 Cells Efficacy (%): Table 4, % maximal inhibition; for IC50: dexamethasone at its EC50, read-out: GR Antagonist CV-1 Cells Potency
T1 construct: expressed in transfected cells; host or cells: CV-1 cells, transient transfection
T1 sequence (P04150 1-777): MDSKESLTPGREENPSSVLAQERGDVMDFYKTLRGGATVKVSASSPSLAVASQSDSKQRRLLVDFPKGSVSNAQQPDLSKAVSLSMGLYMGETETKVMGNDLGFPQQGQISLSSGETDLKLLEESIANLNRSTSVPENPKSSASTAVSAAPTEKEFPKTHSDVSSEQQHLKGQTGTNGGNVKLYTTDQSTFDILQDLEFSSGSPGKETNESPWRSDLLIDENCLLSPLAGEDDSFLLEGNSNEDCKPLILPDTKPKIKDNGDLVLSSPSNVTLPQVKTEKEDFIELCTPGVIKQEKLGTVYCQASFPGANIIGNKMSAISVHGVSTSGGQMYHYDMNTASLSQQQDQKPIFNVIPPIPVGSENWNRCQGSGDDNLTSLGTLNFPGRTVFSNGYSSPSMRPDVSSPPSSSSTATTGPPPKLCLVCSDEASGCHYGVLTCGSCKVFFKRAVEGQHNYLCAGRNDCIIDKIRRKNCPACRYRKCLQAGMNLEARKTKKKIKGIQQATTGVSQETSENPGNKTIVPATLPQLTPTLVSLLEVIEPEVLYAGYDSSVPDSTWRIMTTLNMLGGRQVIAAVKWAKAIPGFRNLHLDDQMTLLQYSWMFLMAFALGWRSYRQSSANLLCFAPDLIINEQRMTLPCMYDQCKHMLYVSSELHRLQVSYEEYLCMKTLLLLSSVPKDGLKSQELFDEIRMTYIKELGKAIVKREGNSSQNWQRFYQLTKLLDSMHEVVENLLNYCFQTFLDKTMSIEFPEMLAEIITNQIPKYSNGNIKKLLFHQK

[2] = target: T2, human mineralocorticoid receptor (MR) (Homo sapiens, UniProt P08235); test: Co-transfection assay, MR antagonist activity, CV-1 cells (pRShMR); type: cell-based; details: antagonist mode; for MR Antagonist CV-1 Cells Efficacy (%): Table 4, % maximal inhibition; for IC50: aldosterone at its EC50, read-out: MR Antagonist CV-1 Cells Potency
T2 construct: expressed in transfected cells; host or cells: CV-1 cells, transient transfection
T2 sequence (P08235 1-984): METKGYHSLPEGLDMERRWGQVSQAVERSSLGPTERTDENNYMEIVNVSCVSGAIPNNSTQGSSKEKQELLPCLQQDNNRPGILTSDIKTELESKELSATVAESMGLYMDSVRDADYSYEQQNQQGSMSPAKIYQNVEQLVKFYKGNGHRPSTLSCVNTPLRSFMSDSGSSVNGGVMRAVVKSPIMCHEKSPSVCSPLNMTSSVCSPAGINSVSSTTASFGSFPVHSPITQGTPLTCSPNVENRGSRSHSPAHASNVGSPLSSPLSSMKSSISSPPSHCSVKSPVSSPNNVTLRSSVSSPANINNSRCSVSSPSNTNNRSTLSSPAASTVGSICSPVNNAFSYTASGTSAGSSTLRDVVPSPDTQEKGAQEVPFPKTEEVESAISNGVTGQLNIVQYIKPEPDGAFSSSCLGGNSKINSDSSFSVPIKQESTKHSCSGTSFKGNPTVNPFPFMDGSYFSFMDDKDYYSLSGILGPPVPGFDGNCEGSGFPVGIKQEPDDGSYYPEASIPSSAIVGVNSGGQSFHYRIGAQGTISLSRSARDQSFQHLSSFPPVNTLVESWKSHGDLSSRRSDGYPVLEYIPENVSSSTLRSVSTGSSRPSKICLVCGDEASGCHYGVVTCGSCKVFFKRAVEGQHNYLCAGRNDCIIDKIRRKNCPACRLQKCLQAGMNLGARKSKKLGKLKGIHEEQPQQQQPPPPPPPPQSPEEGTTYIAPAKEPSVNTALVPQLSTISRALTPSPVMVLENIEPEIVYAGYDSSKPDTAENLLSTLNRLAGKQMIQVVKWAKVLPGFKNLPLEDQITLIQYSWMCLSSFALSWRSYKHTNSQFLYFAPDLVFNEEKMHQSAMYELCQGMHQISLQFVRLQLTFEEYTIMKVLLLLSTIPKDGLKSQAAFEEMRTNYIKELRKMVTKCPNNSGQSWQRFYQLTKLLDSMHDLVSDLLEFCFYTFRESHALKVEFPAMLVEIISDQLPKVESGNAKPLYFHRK

[3] = target: T3, human glucocorticoid receptor alpha (GRα) (Homo sapiens, UniProt P04150); test: GR binding assay, baculovirus extract, [3H] dexamethasone; details: competition with [3H] dexamethasone, 4° C., 16 hours; read-out: GR Binding K1
T3 construct: made in house; crude extract used
T3 sequence (P04150 1-777): T1 sequence (P04150 1-777)

[4] = target: T4, human progesterone receptor A form (PR-A) (Homo sapiens, UniProt P06401); test: PR binding assay, baculovirus extract, [3H] progesterone; details: read-out: PR Binding Ki
T4 sequence (P06401 1-769 isoform P06401-2): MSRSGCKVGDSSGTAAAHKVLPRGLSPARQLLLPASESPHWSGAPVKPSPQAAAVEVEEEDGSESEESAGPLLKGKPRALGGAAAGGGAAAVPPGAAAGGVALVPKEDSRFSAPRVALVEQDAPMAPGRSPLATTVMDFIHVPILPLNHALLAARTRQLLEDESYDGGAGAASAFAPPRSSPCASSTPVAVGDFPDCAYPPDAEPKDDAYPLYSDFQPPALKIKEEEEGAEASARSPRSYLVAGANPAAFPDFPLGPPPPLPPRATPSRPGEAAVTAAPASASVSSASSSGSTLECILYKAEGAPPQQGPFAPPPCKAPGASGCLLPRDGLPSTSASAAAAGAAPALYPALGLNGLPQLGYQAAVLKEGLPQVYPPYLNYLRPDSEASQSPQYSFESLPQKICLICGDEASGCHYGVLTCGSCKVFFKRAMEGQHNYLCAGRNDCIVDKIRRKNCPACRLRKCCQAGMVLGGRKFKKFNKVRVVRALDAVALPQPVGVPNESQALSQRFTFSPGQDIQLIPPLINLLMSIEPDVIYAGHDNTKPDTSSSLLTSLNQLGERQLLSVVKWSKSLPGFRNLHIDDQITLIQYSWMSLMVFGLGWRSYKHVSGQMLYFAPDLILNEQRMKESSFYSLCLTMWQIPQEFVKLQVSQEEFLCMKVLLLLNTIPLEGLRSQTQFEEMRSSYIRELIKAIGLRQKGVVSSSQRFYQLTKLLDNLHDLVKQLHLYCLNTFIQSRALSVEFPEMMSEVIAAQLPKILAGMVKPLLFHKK

Structure (SMILES): CC1=CC(C)(C)Nc2ccc3c(c21)C(c1ccccc1)Oc1ccccc1-3 (racemic) [Compound 161, (R/S)-1,2-Dihydro-2,2,4-trimethyl-5-phenyl-5H-chromeno[3,4-f]quinoline]
- GR Antagonist CV-1 Cells Efficacy (%) [1]: 97%
- IC50 [1]: 0.6 µM
- MR Antagonist CV-1 Cells Efficacy (%) [2]: 58%
- IC50 [2]: 1 µM
- Ki [3]: 0.137 µM
- Ki [4]: 0.003 µM

Structure (SMILES): CC1=CC(C)(C)Nc2ccc3c(c21)C(c1cccc(C(F)(F)F)c1)Oc1ccccc1-3 (racemic) [Compound 195, (R/S) 1,2-Dihydro-2,2,4-trimethyl-5-[3-(trifluoromethyl)phenyl]-5H-chromeno[3,4-f]quinoline]
- GR Antagonist CV-1 Cells Efficacy (%) [1]: 96%
- IC50 [1]: 0.59 µM
- MR Antagonist CV-1 Cells Efficacy (%) [2]: 47%
- IC50 [2]: 1.9 µM
- Ki [3]: 0.026 µM
- Ki [4]: 0.003 µM
